“And” between values parts separate entries of the source, which are not always exact repeats. Equal entries are not always repeated. Where two headings read alike, the source gives them in different places.
Key:
Papain = target: T1, Papain (Carica papaya, UniProt P00784); test: Papain inhibitory activity (casein hydrolysis); assay type: biochemical
T1 construct: purchased Boehringer Mannheim AG
T1 sequence (P00784 134-345): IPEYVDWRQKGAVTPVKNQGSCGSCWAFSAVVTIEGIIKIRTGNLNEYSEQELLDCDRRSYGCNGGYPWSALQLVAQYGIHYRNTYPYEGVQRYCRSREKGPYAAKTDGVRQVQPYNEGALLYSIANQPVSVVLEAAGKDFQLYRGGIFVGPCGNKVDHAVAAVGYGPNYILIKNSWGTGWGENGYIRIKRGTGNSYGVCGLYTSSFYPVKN
Description: (§1) The 0.2 ml of a solution of papain (300 μg/ml, Boeringer Mannheim AG), 0.25 ml of 40 mM cysteine solution dissolved in 5 mM EDTA solution adjusted pH to 6.8 with sodium hydroxide and 0.55 ml of the 50 mM phosphate buffer (pH 6.8) with or without inhibitor were mixed and incubated at 40° C. for 10 min., followed by adding 4 ml of 1.5% casein solution dissolved in a 50 mM phosphate buffer (pH 6.8) to carry out a reaction at 40° C. for 15 min. Then, 2 ml of 1.1M trichloroacetic acid is added to terminate the reaction. After being left to stand at room temperature for one hour, the reaction mixture is centrifuged at 3500 rpm for 10 minutes and absorbance (S) of the trichloroacetic acid soluble fraction at 280 mμ is measured. Similarly, absorbance (B) at 280 mμ is measured when no inhibitors are added. The percent inhibition was calculated by the following formula: […]
(§2) The amount of inhibitor for 50% inhibition was expressed as IC50.

Solubility = assay type: physicochemical
Excerpt: Insoluble in and pyridine.

mice = test: Acute toxicity; assay type: in vivo; details: ip, 400 mg/Kg
[1] = tested on: production of IgG antibody; test: Activity on the production of IgG antibody in mice (passive hemagglutination test); assay type: in vivo, BDF1 strain male mice; details: for IgG antibody titers, individual mice: 200 mg/Kg ip 2 hours before immunization with egg albumin + Freund complete adjuvant, blood after 2 weeks, passive hemagglutination; for Effect on production of IgG antibody (in words): mice, 200 mg/Kg ip
Description: Activity on the production of IgG antibody was examined by the following method.
Estatin A or Estatin B were administered ip to BDF1 strain male mice weighing 18-22 g (one group 5 mice) at a dose of 200 mg/Kg. Control group (10 mice) received only physiological saline.
After 2 hours from the administration each mouse was immunized by intradermal injection with 0.2 mg/0.1 ml of egg albumin together with equal volume of Freund complete adjuvant into the 2 separate sites of the back of the mice. After 2 weeks blood was collected and antibody titers were determined by passive hemagglutination test using glutalaldehyde as coupling reajent. The results are shown below. ______________________________________ Test drugs IgG antibody titers ______________________________________ Estatin A 12800, 6450, 25600 12800, 12800 Estatin B 6400, 25600, 12800 25000, 12800 Control 12800, 25600, 25600, 12800, 6450 12800, 12800, 12800, 12800, 12800 ______________________________________

Stability = details: stable at a pH of
Trypsin = Trypsin inhibitory activity (casein hydrolysis); assay type: biochemical; details: enzyme 1000 μg protein; substrate casein
Excerpt: (§3) The enzyme reactions were all measured according to the prescribed methods.
(§4) (α-chymotrypsin and pepsin used are those manufactured by PL Biochemical Co., and trypsin is that manufactured by Wako Junyaku Co.)

Pepsin = target: T2, Pepsin (Sus scrofa, UniProt P00791); test: Pepsin inhibitory activity (casein hydrolysis); assay type: biochemical
T2 construct: purchased PL Biochemical Co
T2 sequence (P00791 60-385): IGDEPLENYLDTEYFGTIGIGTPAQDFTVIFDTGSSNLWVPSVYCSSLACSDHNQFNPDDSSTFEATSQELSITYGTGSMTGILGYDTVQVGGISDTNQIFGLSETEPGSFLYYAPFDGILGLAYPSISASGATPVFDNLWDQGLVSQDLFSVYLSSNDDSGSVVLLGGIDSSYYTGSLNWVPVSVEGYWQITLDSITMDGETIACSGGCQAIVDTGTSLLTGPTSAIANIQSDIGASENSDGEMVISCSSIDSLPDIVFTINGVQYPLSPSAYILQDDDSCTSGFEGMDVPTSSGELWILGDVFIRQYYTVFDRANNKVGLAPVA
Excerpt: as §3, §4

Bromelain = target: T3, Bromelain (Ananas comosus, UniProt P14518); test: Bromelain inhibitory activity (casein hydrolysis); assay type: biochemical
T3 construct: purchased Boehringer Mannheim AG
T3 sequence (P14518 1-212): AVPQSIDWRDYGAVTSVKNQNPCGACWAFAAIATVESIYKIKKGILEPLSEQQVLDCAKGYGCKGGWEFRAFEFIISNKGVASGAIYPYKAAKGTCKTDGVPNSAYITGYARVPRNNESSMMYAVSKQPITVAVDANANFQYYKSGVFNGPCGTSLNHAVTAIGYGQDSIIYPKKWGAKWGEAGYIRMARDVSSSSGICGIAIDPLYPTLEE
Description: as §1, §2
(§5) Inhibitory activities against ficin (protein amount: 60 μg, manufactured by Boehringer Mannheim AG) and bromelain (protein content: 100 μg, manufactured by Boehringer Mannheim AG) are also measured by the similar method.

α-Chymotrypsin = target: T4, α-Chymotrypsin (Bos taurus, UniProt P00766); test: α-Chymotrypsin inhibitory activity (casein hydrolysis); assay type: biochemical
T4 construct: purchased PL Biochemical Co
Excerpt: as §3, §4

[2] = tested on: production of IgE antibody; test: Activity on the production of IgE antibody in mice (PCA reaction); assay type: in vivo, BDF1 strain male mice; details: for IgE antibody titers (PCA antibody titers), individual mice: 200 mg/Kg ip 2 hours before immunization with egg albumin + aluminum hydroxide, blood after 14 days, reciprocal of maximum dilution with positive blueing in rats; for Effect on production of IgE antibody (in words): mice, 200 mg/Kg ip
Description: Activity on the production of IgE antibody was examined by the following method.
Estatin A or Estatin B dissolved in physiological saline were administered ip to BDF1 strain male mice weighing 18-22 g (one group 5 mice) at a dose of 200 mg/Kg. Control group (10 mice) received only physiological saline. After 2 hours from the administration, 4 mg of aluminum hydroxide together with 10 μg of egg albumin was administered ip to immunize them. After 14 days from the immunization, blood was collected and IgE antibody titer was assayed by PCA reaction (See "International Archives of Allergy and Applied Immunology" Vol. 48, Page 16, 1975.).
That is, serum samples were serially diluted and injected intradermally into the back of Wistar strain male rats weighing 200-250 g. After 48 hours, 1 ml of 1% Evans blue in physiological saline containing 2 mg of egg albumin was administered iv and rats were killed 30 min. later, and blueing of saline were observed. […] The results are shown below. ______________________________________ PCA Antibody TITERS Test drugs IgE antibody titers ______________________________________ Estatin A <100 <100 <100 <100 <100 Estatin B <100 <100 <100 <100 100 Control 400 800 800 800 800 800 1600 1600 1600 3200 ______________________________________

Ficin = Ficin inhibitory activity (casein hydrolysis); assay type: biochemical; details: enzyme 60 μg protein; substrate casein
Description: as §1, §2, §5

Structure (SMILES)	IC50 (Papain; enzyme 60 μg protein, substrate casein, read-out: IC50 concentration, Papain (converted)) [µM]	Solubility in benzene, chloroform, ethyl acetate and petroleum ether (Solubility)	Solubility in water, acetic acid, dimethyl sulfoxide and pyridine (Solubility)	Acute toxicity (mice)	IgG antibody titers, individual mice [1]	Effect on production of IgG antibody (in words) [1]	Stability: pH at which stable (Stability)	IC50 concentration, Trypsin (Trypsin) [µg/mL]	IC50 (Pepsin; enzyme 100 μg protein, substrate casein, read-out: IC50 concentration, Pepsin) [µM]	IC50 (Bromelain; enzyme 100 μg protein, substrate casein, read-out: IC50 concentration, Bromelain (converted)) [µM]	IC50 (α-Chymotrypsin; enzyme 200 μg protein, substrate casein, read-out: IC50 concentration, α-Chymotrypsin) [µM]	IgE antibody titers (PCA antibody titers), individual mice [2]	Effect on production of IgE antibody (in words) [2]	IC50 (Papain) [µM]	IC50 concentration, Ficin (Ficin) [µg/mL]	IC50 (Pepsin) [µM]	IC50 (Bromelain) [µM]	IC50 (α-Chymotrypsin) [µM]
N=C(N)NCCCCNC(=O)[C@H](Cc1ccccc1)NC(=O)C1OC1C(=O)O (mixture of isomers) [N-[N-(D- and L-3-trans-carboxyoxiran-2-carbonyl-L-phenylalanyl]agmatine]	0.0741	–	–	–	–	–	–	–	–	–	–	–	–	–	–	–	–	–
N=C(N)NCCCCNC(=O)[C@H](Cc1ccccc1)NC(=O)[C@H]1O[C@@H]1C(=O)O [Estatin A, N-[N-(L-3-trans-carboxyoxiran-2-carbonyl)-L-phenylalanyl]agmatine]	–	Insoluble	Soluble	no toxic effect	12800 (3×) and 6450 and 25600	do not inhibit the production of IgG antibody	2-9	> 50	> 128	0.37	> 128	< 100	inhibit the production of IgE antibody	0.0664	0.039	–	–	–
N=C(N)NCCCCNC(=O)[C@H](Cc1ccc(O)cc1)NC(=O)[C@H]1O[C@@H]1C(=O)O [Estatin B, N-[N-(L-3-trans-carboxyoxiran-2-carbonyl)-L-tyrosyl]agmatine]	–	Insoluble	Soluble	no toxic effect	6400 and 25600 and 12800 (2×) and 25000	do not inhibit the production of IgG antibody	–	> 50	–	–	–	< 100 (4×) and 100	inhibit the production of IgE antibody	0.0663	0.041	> 123	0.356	> 123
